Among the data in US20210238139A1, “MODULATORS OF TRYPTOPHAN CATABOLISM” (E-Therapeutics PLC, priority 2018, published 2021) are IC50 values, retold here.

The test system of this test is SK-OV-3 cells. Briefly: Effect of compounds on tryptophan catabolism in SK-OV-3 cell line (inhibition of kynurenine production, LC-MS/MS). The test is classed as cell-based. The settings on record: Homo sapiens, SK-OV-3, 24 h, SK-OV-3 cell line, 24 h incubation, kynurenine in supernatant by LC-MS/MS; read-out: IC50 Ranges (ic50 values for inhibition of Kynurenine production). The protocol:
SK-OV-3 cells are seeded in 96-well plates in McCoy's 5A medium supplemented with 10% FBS and incubated overnight at 37° C., 5% CO2, 95% humidity. The […] growth medium is replaced with DMEM F-12 medium supplemented with 6 mg/mL L-tryptophan. Compounds are added to the wells and incubated for 24 h at 37° C., 5% CO2, 95% humidity. Compounds are tested at 8 consecutive 3-fold dilutions starting from 30 μM in duplicate. At the end of incubation, concentration of kynurenine in cell supernatants is […] determined by LC-MS/MS. In parallel, cell viability is assessed by measurement of ATP using CellTiter Glo assay (Promega), according to manufacturer's protocol. Inhibition of Kyn production is calculated using the following formula: […] IC50 ranges for compounds of the invention are presented in Table 2, whereby the IC50 ranges are as follows: • A: […]

A word on the IC50: it is the concentration that inhibits the measured activity by half. For the molecule `Cc1ccc(CN(C(=O)Nc2nc3ccccc3s2)C2CCCC2)o1` [Compound 134, 3-(1,3-benzothiazol-2-yl)-1-cyclopentyl-1-[(5-methyl-2-furyl)methyl]urea], the IC50 is 0.5 to 1 µM.

For `N#Cc1ccc(NC(=O)N(Cc2cn3ccccc3n2)C2CCC2)cc1` [Compound 210, 3-(4-cyanophenyl)-1-cyclobutyl-1-(imidazo[1,2-a]pyridin-2-ylmethyl)urea], the IC50 fell in the range of 1 to 5 µM.

As to `CC(c1cccc(C#N)c1)N(C(=O)Nc1ccc(Cl)cc1)C1CCC1` (racemic) [Compound 192, 3-(4-chlorophenyl)-1-[1-(3-cyanophenyl)ethyl]-1-cyclobutyl-urea], the IC50 was below 0.1 µM.

With `O=C(Nc1ccc(F)c(F)c1)N(Cc1ccccc1Cl)C1CCCC1` [Compound 40, 1-[(2-chlorophenyl)methyl]-1-cyclopentyl-3-(3,4-difluorophenyl)urea], the IC50 was 0.1 to 0.5 µM.

For the molecule `Cn1nccc1N(Cc1ccc2ncsc2c1)C(=O)Nc1ccc(C#CCO)cc1` [Compound 280, 1-(1,3-benzothiazol-6-ylmethyl)-3-[4-(3-hydroxyprop-1-ynyl)phenyl]-1-(2-methylpyrazol-3-yl)urea], the IC50 is 1 to 5 µM.

In the case of `CC1(CN(C(=O)Nc2ccc(Cl)cc2)C2CCCC2)CCNCC1` [Compound 87, 3-(4-chlorophenyl)-1-cyclopentyl-1-[(4-methyl-4-piperidyl)methyl]urea], the IC50 was above 5 µM.

For the molecule `CC(C)(C)OC(=O)N1CCC(CN(C(=O)Nc2ccccc2)C2CCCC2)CC1` [Compound 118, tert-butyl 4-[[cyclopentyl(phenylcarbamoyl)amino]methyl]piperidine-1-carboxylate], the IC50 lay within 1 to 5 µM.

Take `Cc1oncc1N(Cc1cccc(C(F)(F)F)c1)C(=O)Nc1ccc(C#N)cc1` [Compound 293, 3-(4-cyanophenyl)-1-(5-methylisoxazol-4-yl)-1-[[3-(trifluoromethyl)phenyl]methyl]urea]: the IC50 was 0.1 to 0.5 µM.

Regarding `Cc1ccc(CN(C(=O)Nc2ccc(Cl)cc2)c2ncccc2C)o1` [Compound 318, 3-(4-chlorophenyl)-1-[(5-methyl-2-furyl)methyl]-1-(3-methyl-2-pyridyl)urea], the IC50 is below 0.1 µM.

Regarding `O=C(Nc1ccc(Cl)cc1)N(Cc1ccc2scnc2c1)C1CCC1` [Compound 260, 1-(1,3-benzothiazol-5-ylmethyl)-3-(4-chlorophenyl)-1-cyclobutyl-urea], the IC50 is below 0.1 µM.

Take `CCN(Cc1ccc(C)o1)C(=O)Nc1ccccc1` [Compound 165, 1-ethyl-1-[(5-methyl-2-furyl)methyl]-3-phenyl-urea]: the IC50 is 1 to 5 µM.

On to `COc1ccc(NC(=O)N(Cc2ccc(C)o2)C2CCCC2)cn1` [Compound 253, 1-cyclopentyl-3-(6-methoxy-3-pyridyl)-1-[(5-methyl-2-furyl)methyl]urea], for which the IC50 was 0.1 to 0.5 µM.

On to `Cc1ccc(CN(C(=O)Nc2ccc(C(N)=O)cc2)C2CCCC2)o1` [Compound 117, 4-[[cyclopentyl-[(5-methyl-2-furyl)methyl]carbamoyl]-amino]benzamide], for which the IC50 was 1 to 5 µM.

Consider `N#Cc1cc(CN(C(=O)Nc2ccc(Cl)cc2)C2CCCC2)ccn1` [Compound 114, 3-(4-chlorophenyl)-1-[(2-cyano-4-pyridyl)methyl]-1-cyclopentyl-urea], for which the IC50 lay within 0.1 to 0.5 µM.

Consider `Cc1nc(C)c(CN(C(=O)Nc2ccccc2)C2CCCC2)s1` [Compound 170, 1-cyclopentyl-1-[(2,4-dimethylthiazol-5-yl)methyl]-3-phenyl-urea], for which the IC50 lay in the range of 1 to 5 µM.

`Cc1ccc(CN(C(=O)Nc2ccc(C#N)cc2)c2nonc2C)o1` [Compound 322, 3-(4-cyanophenyl)-1-[(5-methyl-2-furyl)methyl]-1-(4-methyl-1,2,5-oxadiazol-3-yl)urea]: the IC50 is below 0.1 µM.

`COc1ccc(NC(=O)N(Cc2cccs2)C2CCCC2)cc1` [Compound 14, 1-cyclopentyl-3-(4-methoxyphenyl)-1-(2-thienylmethyl)urea]: the concentration for half-maximal inhibition (IC50) was above 5 µM.
